Experimental findings from patent publication US4684719A, “α,α-trehalose fatty acid diester derivative” (SS Pharmaceutical Co., Ltd., priority 1984, dated 1987) are described below.

Values after ≈ are worked out from the molar mass of the structure shown.

One assay relates to Ehrlich carcinoma. The assay can be described thus: Activities against Ehrlich carcinoma (antitumor effect, survival time in mice). It counts as in vivo, ICR female mice. As to conditions: Mus musculus, ip, 720 h, intraperitoneal, once a day for 10 days, average survival time counted 30 days after implantation, read-out: Antitumor effect (T/C %). As for the experimental part: (1) Activities against Ehrlich carcinoma:
To 8 ICR female mice as a group, Ehrlich carcinoma cells were intraperitoneally implanted in an amount of 10^5 cells per mouse. From an elapsed time of 24 hours after the implantation, the compound (I) of this invention which was suspended in physiological saline containing 0.5% of CMC-Na was intraperitoneally administered in predetermined dosages (0.4 mg/kg, 4.0 mg/kg and 40.0 mg/kg), once a day and for 10 days.
Upon an elapsed time of 30 days after the implantation of the carcinoma, the survival time of each mouse was counted. The average survival time of Control Group (C) and that of Group (T), in which the compound of this invention was administered, were obtained respectively. Antitumor effect (T/C %) was then determined in accordance with the following equation. [formula]

The next assay deals with Leukemia L-5178Y cells. As to the kind of experiment: Cell-killing activities (leukemia L-5178Y cells). The class given is cell-based. The settings on record: Mus musculus, L5178Y; 48 hours, 37° C., 5% CO2; live cells counted microscopically, probit diagram method. As for the experimental part: (2) Cell-killing activities:
Leukemia L-5178Y cells were provided to a concentration of 2×10^5cells/ml in PRMI 1640 culture medium which contained 10% of bovine fetus albumin. To portions of the above-prepared culture medium, the compound of this invention was added to concentrations 3.125, 6.25, 12.5, 25, 50, 100 and 300 μg/ml respectively. After culturing them for 48 hours in a 5% CO2 incubator of 37° C., the numbers of live cells on respective portions of the culture were counted microscopically. Percentage proliferation was determined relative to Control and 50% Inhibitory Concentration (IC50) was obtained by the probit diagram method.

Turning to `CC(=O)O[C@H]1[C@H](O)[C@@H](O)[C@@H](O[C@H]2O[C@H](CO)[C@@H](OC(C)=O)[C@H](O)[C@H]2O)O[C@@H]1CO` [Compound 11], in the assay on Ehrlich carcinoma, the response vs control in vivo at 0.4 mg/kg was found to be 154%, the response vs control in vivo at 4 mg/kg was 105% and the response vs control in vivo at 40 mg/kg stood at 114%.

For `CCCC(=O)O[C@H]1[C@H](O)[C@@H](O)[C@@H](O[C@H]2O[C@H](CO)[C@@H](OC(=O)CCC)[C@H](O)[C@H]2O)O[C@@H]1CO` [Compound 12], in the assay with Ehrlich carcinoma, the response vs control in vivo at 0.4 mg/kg is 141%, the response vs control in vivo at 4 mg/kg amounted to 142% and the response vs control in vivo at 40 mg/kg is 114%.

Take `CCCCCC(=O)O[C@H]1[C@H](O)[C@@H](O)[C@@H](O[C@H]2O[C@H](CO)[C@@H](OC(=O)CCCCC)[C@H](O)[C@H]2O)O[C@@H]1CO` [Compound 13]: the IC50 in the assay on Leukemia L-5178Y cells is > 300 µg/mL. In the assay on Ehrlich carcinoma, the response vs control in vivo at 0.4 mg/kg was determined as 127%, the response vs control in vivo at 4 mg/kg amounted to 120% and the response vs control in vivo at 40 mg/kg was found to be 103%.

In the assay on Leukemia L-5178Y cells, `CCCCCCCC(=O)O[C@H]1[C@H](O)[C@@H](O)[C@@H](O[C@H]2O[C@H](CO)[C@@H](OC(=O)CCCCCCC)[C@H](O)[C@H]2O)O[C@@H]1CO` [Compound 14] came in with an IC50 of 35.1 µg/mL (≈ 59 µM). In the assay with Ehrlich carcinoma, the response vs control in vivo at 0.4 mg/kg came out at 136%, the response vs control in vivo at 4 mg/kg turned out to be 117% and the response vs control in vivo at 40 mg/kg came to 183%.

`CCCCCCCCCC(=O)O[C@H]1[C@H](O)[C@@H](O)[C@@H](O[C@H]2O[C@H](CO)[C@@H](OC(=O)CCCCCCCCC)[C@H](O)[C@H]2O)O[C@@H]1CO` [Compound 15] had an IC50 in the assay with Leukemia L-5178Y cells of 11.2 µg/mL (≈ 17.2 µM). Further, in the assay with Ehrlich carcinoma, the response vs control in vivo at 0.4 mg/kg turned out to be 121%, the response vs control in vivo at 4 mg/kg came out at 152% and the response vs control in vivo at 40 mg/kg worked out at 188%.

Consider `CCCCCCCCCCCC(=O)O[C@H]1[C@H](O)[C@@H](O)[C@@H](O[C@H]2O[C@H](CO)[C@@H](OC(=O)CCCCCCCCCCC)[C@H](O)[C@H]2O)O[C@@H]1CO` [Compound 16], for which the IC50 in the assay on Leukemia L-5178Y cells was determined as 8.4 µg/mL (≈ 11.9 µM). Also, in the assay with Ehrlich carcinoma, the response vs control in vivo at 0.4 mg/kg turned out to be 102%, the response vs control in vivo at 4 mg/kg worked out at 180% and the response vs control in vivo at 40 mg/kg is 225%.

In the assay on Leukemia L-5178Y cells, `CCCCCCCCCCCCCC(=O)O[C@H]1[C@H](O)[C@@H](O)[C@@H](O[C@H]2O[C@H](CO)[C@@H](OC(=O)CCCCCCCCCCCCC)[C@H](O)[C@H]2O)O[C@@H]1CO` [Compound 17] displayed an IC50 of 12.6 µg/mL (≈ 16.5 µM). Also, in the assay on Ehrlich carcinoma, the response vs control in vivo at 0.4 mg/kg was 98%, the response vs control in vivo at 4 mg/kg is 203% and the response vs control in vivo at 40 mg/kg turned out to be 203%.

As for `CCCCCCCCCCCCCCCC(=O)O[C@H]1[C@H](O)[C@@H](O)[C@@H](O[C@H]2O[C@H](CO)[C@@H](OC(=O)CCCCCCCCCCCCCCC)[C@H](O)[C@H]2O)O[C@@H]1CO` [Compound 18], the IC50 with Leukemia L-5178Y cells is > 300 µg/mL. Moreover, in the assay with Ehrlich carcinoma, the response vs control in vivo at 0.4 mg/kg came to 125%, the response vs control in vivo at 4 mg/kg came to 216% and the response vs control in vivo at 40 mg/kg turned out to be 189%.

Consider `CCCCCCCCCCCCCCCCCC(=O)O[C@H]1[C@H](O)[C@@H](O)[C@@H](O[C@H]2O[C@H](CO)[C@@H](OC(=O)CCCCCCCCCCCCCCCCC)[C@H](O)[C@H]2O)O[C@@H]1CO` [Compound 19, 4,4'-di-O-stearoyl-α,α-trehalose], for which, in the assay with Ehrlich carcinoma, the response vs control in vivo at 0.4 mg/kg was 98%, the response vs control in vivo at 4 mg/kg amounted to 183% and the response vs control in vivo at 40 mg/kg was 198%.

With `CCCCCCCCCCCCCCCCCCCCCC(=O)O[C@H]1[C@H](O)[C@@H](O)[C@@H](O[C@H]2O[C@H](CO)[C@@H](OC(=O)CCCCCCCCCCCCCCCCCCCCC)[C@H](O)[C@H]2O)O[C@@H]1CO` [Compound 20], in the assay with Ehrlich carcinoma, the response vs control in vivo at 0.4 mg/kg was determined as 165%, the response vs control in vivo at 4 mg/kg is 179% and the response vs control in vivo at 40 mg/kg amounted to 157%.

By IC50 is commonly meant the concentration that gives 50% inhibition. A lower IC50 goes with greater potency in that assay.
